The source of these data is patent US20260315468A1, “PHARMACEUTICAL COMPOSITION AND USE THEREOF” (SHANGHAI ALLIST PHARMACEUTICAL CO., LTD., priority 2022, published 2026).

For one data set, the system named is Ba/F3 EGFR-G724S. Put plainly: Anti-tumor effect in Ba/F3 EGFR-G724S (KC-1385) cell xenograft model. The data set is classed as in vivo, B-NDG mice. Conditions: orally, once per day, two weeks. An excerpt:
(§1) This study was used for evaluate the anti-tumor efficacy of furmonertinib mesilate in the female (B-NDG) immune deficiency mice bearing tumors of Ba/F3 EGFR-G724S engineered cells.
(§2) Experimental animals: B-NDG mice, female, 6-8 weeks, and weighing 18-20 g.
(§3) Animal modeling and random grouping: Ba/F3 EGFR-G724S cells were cultivated, cells were collected, and re-suspended and counted in serum-free medium, the re-suspended cells with the addition of a matrigel at 1:1 were subcutaneous inoculated at 1×10^6 cells/0.1 mL in B-NDG mice. When the average tumor volume was about 80-120 mm^3, the animals were randomly grouped into four experiment groups according to the tumor size. Each group contained 12 mice. The grouping day was defined as Day 0, i.e., D0.
The experimental scheme: B-NDG mice were subcutaneously inoculated with Ba/F3 EGFR-G724S cells to establish a cell-line-derived xenograft model. The experiment was divided into 15 mg/kg group of furmonertinib mesilate, 30 mg/kg group of furmonertinib mesilate, 50 mg/kg group of furmonertinib mesilate and vehicle group, wherein each group contained 12 animals, orally administered with the administration volume of 10 uL/g, and the vehicle group was administered with the same amount of vehicle, the administration was carried out once per day and lasted for two weeks. During the whole experiment, the body weight and the tumor sizes of the mice were measured twice each week, and whether or not the presence of toxic reactions was observed.
Tumor Volume (TV) was calculated by: TV=0.5*a*b^2, where a was the long diameter of the tumor and b was the short diameter of the tumor.
The curves for the tumor volume change of four experimental groups were shown in FIG. 1, and the curves for the body weight change of four experimental groups were shown in FIG. 2.

Data set [1] in a line: Body weight and safety in the Ba/F3 EGFR-G724S xenograft model. The data set is classed as in vivo, B-NDG mice. Conditions: 15, 30 and 50 mg/kg, orally, once per day, two weeks.
Text: as §1, §2, §3
The experimental scheme: B-NDG mice were subcutaneously inoculated with Ba/F3 EGFR-G724S cells to establish a cell-line-derived xenograft model. […] During the whole experiment, the body weight and the tumor sizes of the mice were measured twice each week, and whether or not the presence of toxic reactions was observed. […]

In the case of `C=CC(=O)Nc1cc(Nc2nccc(-c3cn(C)c4ccccc34)n2)c(OCC(F)(F)F)nc1N(C)CCN(C)C` [Furmonertinib mesilate], the anti-tumor activity result was “moderate anti-tumor activity” in the data set with Ba/F3 EGFR-G724S (15 mg/kg), “extremely significant anti-tumor activity” in the data set on Ba/F3 EGFR-G724S (30 mg/kg) and “extremely significant anti-tumor activity” in the data set with Ba/F3 EGFR-G724S (50 mg/kg). Also, in data set [1], the “effect on the body weight of mice” value is given as “little effect on the body weight of mice”. The safety result in data set [1] was “good safety”.
